From ChEMBL document CHEMBL4831521, “Dual High-Resolution α-Glucosidase and PTP1B Inhibition Profiling Combined with HPLC-PDA-HRMS-SPE-NMR Analysis for the Identification of Potentially Antidiabetic Chromene Meroterpenoids from Rhododendron capitatum” (J Nat Prod, 2021)

Legend:
Saccharomyces cerevisiae = assay: Inhibition of Saccharomyces cerevisiae alpha-glucosidase at 100 uM using pNPG as substrate preincubated for 10 mins followed by substrate addition and measured for 35 mins by microplate photometric method; conditions: time 45.0 min
[1] = target: T1, Tyrosine-protein phosphatase non-receptor type 1 (Homo sapiens, UniProt P18031); assay: Inhibition of human recombinant PTP1B (1 to 322 residues) expressed in Escherichia coli using pNPP as substrate preincubated with substrate for 10 mins followed by enzyme addition and measured for 10 mins by absorbance based analysis
T1 sequence (P18031 whole entry): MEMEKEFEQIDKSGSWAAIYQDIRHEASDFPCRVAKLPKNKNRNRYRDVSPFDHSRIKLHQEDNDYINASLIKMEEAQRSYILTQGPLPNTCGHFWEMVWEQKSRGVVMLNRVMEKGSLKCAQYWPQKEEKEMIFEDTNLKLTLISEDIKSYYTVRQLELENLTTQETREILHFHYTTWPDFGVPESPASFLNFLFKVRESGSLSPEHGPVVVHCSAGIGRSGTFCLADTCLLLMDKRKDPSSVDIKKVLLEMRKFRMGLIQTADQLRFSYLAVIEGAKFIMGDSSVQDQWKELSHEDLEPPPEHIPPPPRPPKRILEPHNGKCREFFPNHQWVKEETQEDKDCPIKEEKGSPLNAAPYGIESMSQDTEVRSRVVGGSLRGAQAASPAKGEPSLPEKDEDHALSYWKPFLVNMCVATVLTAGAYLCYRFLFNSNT

[2] = Inhibition of Saccharomyces cerevisiae alpha-glucosidase using pNPG as substrate preincubated for 10 mins followed by substrate addition and measured for 35 mins by microplate photometric method

| SMILES | inhibition (Saccharomyces cerevisiae) [%] | IC50 [1] [µM] | IC50 [2] [µM] |
| --- | --- | --- | --- |
| CO[C@@](C)(CCC=C(C)C)[C@H](O)CC[C@]1(C)C=Cc2c(cc(C)c(C(=O)O)c2O)O1 (relative stereo) | 23.8 | 53.6 |  |
| C=C(C)[C@H](O)CCC(=C)[C@H](O)CC[C@]1(C)C=Cc2c(cc(C)c(C(=O)O)c2O)O1 | 63.5 | 36.3 | 93.5 |
| CC(C)=CCC/C(C)=C/CC[C@]1(C)C=Cc2c(cc(C)c(C(=O)O)c2O)O1 | 99.9 | 2.5 | 10.6 |
| CO[C@](C)(CCC=C(C)C)[C@H](O)CC[C@]1(C)C=Cc2c(cc(C)c(C(=O)O)c2O)O1 (mixture of isomers) | 15.6 |  |  |
| CC(C)=CCC/C(C)=C/CC/C(C)=C/Cc1c(O)cc(C)c(C(=O)O)c1O [GRIFOLIC ACID] | 99.7 | 3.6 | 8 |
| CC(C)=CCC[C@](C)(O)[C@H](O)CC[C@]1(C)C=Cc2c(cc(C)c(C(=O)O)c2O)O1 (mixture of isomers) | -1.8 |  |  |
| C=C(C)[C@H](O)CC/C(C)=C/CC[C@]1(C)C=Cc2c(cc(C)c(C(=O)O)c2O)O1 | 99.6 | 10.3 | 21.2 |
| C=C(C)/C=C/C/C(C)=C/CC[C@]1(C)C=Cc2c(cc(C)c(C(=O)O)c2O)O1 | 27.5 | 19.9 |  |
| COC(C)(C)[C@H](O)CC/C(C)=C/CC[C@]1(C)C=Cc2c(cc(C)c(C(=O)O)c2O)O1 | 17.2 |  |  |
| C/C(=C\CC[C@]1(C)C=Cc2c(cc(C)c(C(=O)O)c2O)O1)C/C=C\C(C)(C)O |  | 68.1 |  |
| C=C(C/C=C/C(C)(C)O)[C@H](O)CC[C@]1(C)C=Cc2c(cc(C)c(C(=O)O)c2O)O1 | 36.9 | 28.2 |  |
| C[C@H]1O[C@H](O[C@H]2[C@H](O)[C@@H](O)[C@@H](O[C@H]3[C@H](O)[C@@H](O)C(O)O[C@@H]3CO)O[C@@H]2CO)[C@H](O)[C@@H](O)[C@@H]1N[C@H]1C=C(CO)[C@@H](O)[C@H](O)[C@H]1O (some centres undefined) [ACARBOSE] |  |  | 796 |
| CC(C)=CCC[C@@](C)(O)[C@H](O)CC[C@]1(C)C=Cc2c(cc(C)c(C(=O)O)c2O)O1 (relative stereo) | -1.8 |  |  |
| Cc1c(O)c(C)c2c(c1O)C(=O)C[C@@H](c1ccc(O)cc1)O2 | 11.2 |  |  |
| Cc1c(O)cc(O)c2c1O[C@H](c1ccc(O)cc1)CC2=O | 14.4 |  |  |
| C=C(CCC=C(C)C)[C@H](O)CC[C@]1(C)C=Cc2c(cc(C)c(C(=O)O)c2O)O1 | 99.8 | 6 | 18.6 |
